Reference: patent publication US6369094B1, “Polymorphic salt” (Pfizer Inc., priority 1999, dated 2002)
Values after ≈ are worked out from the molar mass of the structure shown. Where a name gives a salt, the structure may show the parent alone.

Columns and labels:
[1] = assay type: physicochemical; settings: pH 6
[2] = Hygroscopicity study: moisture sorption by Dynamic Vapour Sorption (DVS); assay type: physicochemical; settings: 0 to 75% RH, 30° C.
Experimental: The moisture sorptions of the three known polymorphs (α-form, β-form and present invention) of the hemisulphate of 3-(N-methyl-2(R)-pyrrolidinylmethyl)-5-(2-phenylsulphonylethyl)-1H-indole were determined using a Dynamic Vapour Sorption (DVS) Automated Sorption Analyser Model DVS-1 manufactured by Surface Measurements Systems Ltd, UK. Each polymorph was analysed by accurately weighing approximately 25 mg into the sample pan which was then exposed to humidities in the range 0 to 75% RH. The analysis temperature was 30° C. with a nitrogen flow rate of 200 cm^3 min^−1.

[3] = Stability study: polymorphic form re-examined by PXRD and DSC; assay type: physicochemical; settings: stored for seven months under ambient conditions
[4] = Compression studies in an IR bench press; assay type: physicochemical; settings: 5 tonnes for 1 minute, 13 mm punch and die set
[5] = as described in European Patent 0776323; cited from earlier work
[6] = listed as hemisulphate polymorph of the present invention

SMILES: CN1CCC[C@@H]1Cc1c[nH]c2ccc(CCS(=O)(=O)c3ccccc3)cc12 [hydrobromide, 3-(N-methyl-2(R)-pyrrolidinylmethyl)-5-(2-phenylsulphonylethyl)-1H-indole, reference compound]
- solubility [1]: 2.90 mg/mL

SMILES: CN1CCC[C@@H]1Cc1c[nH]c2ccc(CCS(=O)(=O)c3ccccc3)cc12 [polymorph of the invention, 3-(N-methyl-2(R)-pyrrolidinylmethyl)-5-(2-phenylsulphonylethyl)-1H-indole]
- hygroscopicity (moisture sorption) [2]: markedly less hygroscopic than either the α- or β-form
- hygroscopicity (moisture sorption) [2, 6]: negligible hygroscopicity
- polymorphic stability (PXRD and DSC) [3]: totally unchanged
- polymorphic stability (PXRD and DSC) [3, 6]: no change in its polymorphic form
- solubility [1]: 478 mg/mL (≈ 1250 mM)
- colour change and punch filming upon compression [4]: no significant colour change and no evidence of punch filming
- colour change and punch filming upon compression [4, 6]: no significant colour change or punch filming

SMILES: CN1CCC[C@@H]1Cc1c[nH]c2ccc(CCS(=O)(=O)c3ccccc3)cc12 [α-polymorph, 3-(N-methyl-2(R)-pyrrolidinylmethyl)-5-(2-phenylsulphonylethyl)-1H-indole]
- colour change and punch filming during tabletting [5]: giving rise to colour change and punch filming
- hygroscopicity [5]: hygroscopic
- polymorphic stability [5]: polymorphically unstable
